“Also recorded” adds a separate entry of the source.
Test system: Japanese patients with R/R iNHL
Assay: Phase 1 dose-escalation study: safety and tolerability (TEAEs, DLTs)
Format: in vivo
From the text: Japanese patients aged ≥ 20 years with R/R iNHL histologically confirmed as FL, nodal MZL, extra-nodal MZL of mucosa-associated lymphoid tissue, small lymphocytic lymphoma, lymphoplasmacytic lymphoma, Waldenström’s macroglobulinemia, or equivalent, according to World Health Organization classification, were eligible for this study. Other key eligibility criteria included being PI3K inhibitor therapy-naïve and an Eastern Cooperative Oncology Group performance status of 0 or 1. Further details of inclusion and exclusion criteria are provided in Supplementary Table 1.
This was a multicenter, open-label, dose-escalation, phase 1 study in Japan. All patients received oral zandelisib once daily at the same time each day, at least 1 h before or 2 h after a meal (CS: continuous schedule). Each treatment cycle was 28 days. Definitions of the DLTs described in this study can be found in Supplementary Table 2. The observation period for DLTs was from day 1 of Cycle 1 to day 1 of Cycle 2. Zandelisib was administered until disease progression or unacceptable toxicity. In the event of an AE, patients could be switched to IDT. In the case of disease progression while receiving IDT, patients could be switched back to CS per the investigator’s discretion.
A starting dose of 45 mg was set for investigating patient safety. This study adopted a standard 3 + 3 design. […] If DLTs occurred in 2 or more patients, the study was planned to be suspended pending a safety evaluation. If a DLT occurred in 1 patient, 3 further patients were added to cohort 1. If DLTs occurred in 0/3 or 1/6 patients in cohort 1, dosing in cohort 2 commenced (n = 6; 60 mg/day). If the incidence of DLTs in cohort 2 was ≤ 1/6, the maximum tolerated dose was not determined, and the dose in cohort 2 was to be selected as the recommended Japanese phase 2 dose.
The primary endpoint was the safety [number of patients with treatment-emergent adverse events (TEAEs), based on Common Terminology Criteria for Adverse Events version 5.0] and tolerability (including laboratory values, vital signs, and electrocardiogram performance) of zandelisib in Japanese patients. Hepatobiliary disorder, aspartate/alanine (AST/ALT) increased, diarrhea/colitis, organizing pneumonia, stomatitis, or rash were defined as irAEs in this manuscript. Secondary endpoints included PK (plasma concentrations and PK parameters) and the efficacy of zandelisib. […] The PK parameters for Cycle 1 day 1 and Cycle 2 day 1 were calculated for each patient by non-compartmental analysis. PK parameters included maximum plasma drug concentration (Cmax), area under the plasma concentration–time curve (AUC) from time zero to the last measurable point (AUC0–t), the AUC from time zero to infinity (AUC0-inf), and terminal half-life (t1/2).

CN1CCC(c2ccccc2CC(C)(C)Nc2nc(N3CCOCC3)nc(-n3c(C(F)F)nc4ccccc43)n2)CC1 [zandelisib]
TEAE Infections and infestations (SOC), All grades (60 mg, n = 6): 4 (66.7) n (%)
TEAE Infections and infestations (SOC), Grade ≥ 3 (60 mg, n = 6): 0 n (%)
TEAE Infusion site extravasation, All grades (60 mg, n = 6): 0 n (%)
TEAE Infusion site extravasation, Grade ≥ 3 (60 mg, n = 6): 0 n (%)
TEAE Insomnia, All grades (60 mg, n = 6): 0 n (%)
TEAE Insomnia, Grade ≥ 3 (60 mg, n = 6): 0 n (%)
TEAE Investigations (SOC), All grades (60 mg, n = 6): 6 (100.0) n (%)
TEAE Investigations (SOC), Grade ≥ 3 (60 mg, n = 6): 4 (66.7) n (%)
TEAE Joint effusion, All grades (60 mg, n = 6): 0 n (%)
TEAE Joint effusion, Grade ≥ 3 (60 mg, n = 6): 0 n (%)
TEAE Lymphocyte count decreased, All grades (60 mg, n = 6): 1 (16.7) n (%)
TEAE Lymphocyte count decreased, Grade ≥ 3 (60 mg, n = 6): 0 n (%)
TEAE Metabolism and nutrition disorders (SOC), All grades (60 mg, n = 6): 0 n (%)
TEAE Metabolism and nutrition disorders (SOC), Grade ≥ 3 (60 mg, n = 6): 0 n (%)
TEAE Muscle spasms, All grades (60 mg, n = 6): 0 n (%)
TEAE Muscle spasms, Grade ≥ 3 (60 mg, n = 6): 0 n (%)
TEAE Musculoskeletal and connective tissue disorders (SOC), All grades (60 mg, n = 6): 2 (33.3) n (%)
TEAE Musculoskeletal and connective tissue disorders (SOC), Grade ≥ 3 (60 mg, n = 6): 0 n (%)
TEAE Nasopharyngitis, All grades (60 mg, n = 6): 3 (50.0) n (%)
TEAE Nasopharyngitis, Grade ≥ 3 (60 mg, n = 6): 0 n (%)
TEAE Nausea, All grades (60 mg, n = 6): 2 (33.3) n (%)
TEAE Nausea, Grade ≥ 3 (60 mg, n = 6): 0 n (%)
TEAE Nervous system disorders (SOC), All grades (60 mg, n = 6): 0 n (%)
TEAE Nervous system disorders (SOC), Grade ≥ 3 (60 mg, n = 6): 0 n (%)
TEAE Neutrophil count decreased, All grades (60 mg, n = 6): 6 (100.0) n (%)
TEAE Neutrophil count decreased, Grade ≥ 3 (60 mg, n = 6): 4 (66.7) n (%)
TEAE Oral herpes, All grades (60 mg, n = 6): 0 n (%)
TEAE Oral herpes, Grade ≥ 3 (60 mg, n = 6): 0 n (%)
TEAE Organizing pneumonia, All grades (60 mg, n = 6): 0 n (%)
TEAE Organizing pneumonia, Grade ≥ 3 (60 mg, n = 6): 0 n (%)
TEAE Oropharyngeal pain, All grades (60 mg, n = 6): 2 (33.3) n (%)
TEAE Oropharyngeal pain, Grade ≥ 3 (60 mg, n = 6): 0 n (%)
TEAE Pancreatitis, All grades (60 mg, n = 6): 0 n (%)
TEAE Pancreatitis, Grade ≥ 3 (60 mg, n = 6): 0 n (%)
TEAE Pharyngeal paresthesia, All grades (60 mg, n = 6): 1 (16.7) n (%)
TEAE Pharyngeal paresthesia, Grade ≥ 3 (60 mg, n = 6): 0 n (%)
TEAE Pruritus, All grades (60 mg, n = 6): 1 (16.7) n (%)
TEAE Pruritus, Grade ≥ 3 (60 mg, n = 6): 0 n (%)
TEAE Psychiatric disorders (SOC), All grades (60 mg, n = 6): 0 n (%)
TEAE Psychiatric disorders (SOC), Grade ≥ 3 (60 mg, n = 6): 0 n (%)
TEAE Rash maculopapular, All grades (60 mg, n = 6): 4 (66.7) n (%)
TEAE Rash maculopapular, Grade ≥ 3 (60 mg, n = 6): 1 (16.7) n (%)
TEAE Rash, All grades (60 mg, n = 6): 3 (50.0) n (%)
TEAE Rash, Grade ≥ 3 (60 mg, n = 6): 0 n (%)
TEAE Renal and urinary disorders (SOC), All grades (60 mg, n = 6): 0 n (%)
TEAE Renal and urinary disorders (SOC), Grade ≥ 3 (60 mg, n = 6): 0 n (%)
TEAE Renal impairment, All grades (60 mg, n = 6): 0 n (%)
TEAE Renal impairment, Grade ≥ 3 (60 mg, n = 6): 0 n (%)
TEAE Respiratory, thoracic, and mediastinal disorders (SOC), All grades (60 mg, n = 6): 3 (50.0) n (%)
TEAE Respiratory, thoracic, and mediastinal disorders (SOC), Grade ≥ 3 (60 mg, n = 6): 0 n (%)
TEAE Skin and subcutaneous tissue disorders (SOC), All grades (60 mg, n = 6): 6 (100.0) n (%)
TEAE Skin and subcutaneous tissue disorders (SOC), Grade ≥ 3 (60 mg, n = 6): 1 (16.7) n (%)
TEAE Stomatitis, All grades (60 mg, n = 6): 1 (16.7) n (%)
TEAE Stomatitis, Grade ≥ 3 (60 mg, n = 6): 0 n (%)
TEAE Subcutaneous abscess, All grades (60 mg, n = 6): 1 (16.7) n (%)
TEAE Subcutaneous abscess, Grade ≥ 3 (60 mg, n = 6): 0 n (%)
TEAE Tinnitus, All grades (60 mg, n = 6): 0 n (%)
TEAE Tinnitus, Grade ≥ 3 (60 mg, n = 6): 0 n (%)
TEAE Urticaria, All grades (60 mg, n = 6): 0 n (%)
TEAE Urticaria, Grade ≥ 3 (60 mg, n = 6): 0 n (%)
TEAE Vomiting, All grades (60 mg, n = 6): 2 (33.3) n (%)
TEAE Vomiting, Grade ≥ 3 (60 mg, n = 6): 0 n (%)
TEAE WBC count decreased, All grades (60 mg, n = 6): 2 (33.3) n (%)
TEAE WBC count decreased, Grade ≥ 3 (60 mg, n = 6): 0 n (%)
maximum tolerated dose (MTD) (45 and 60 mg/day): not reached
dose-limiting toxicities (DLTs) (45 and 60 mg/day, N = 9): No dose-limiting toxicities were observed; also recorded: No DLTs were reported; also recorded: no DLTs or fatal events were observed
recommended phase 2 dose (RP2D) (Japanese patients): 60 mg/day
Grade 3 irAEs (N = 9): 7 patients
Grade ≤ 3 irAEs (N = 9): All patients experienced Grade ≤ 3 irAEs
Grade ≥ 3 diarrhea (N = 9): 33.3%
Grade ≥ 3 neutrophil count decreased (N = 9): 55.6%
discontinued due to SAEs (N = 9): 3 patients
dosing interrupted due to irAEs (N = 9): 7 patients
dosing interrupted due to neutrophil count decreased (N = 9): 1 patients
incidence of TEAEs ≥ Grade 3 (N = 9): 77.8%
number of serious AEs (SAEs) (N = 9): 6
zandelisib discontinuation due to immune-related toxicities (N = 9): 4 patients
patients with serious AEs (SAEs) (N = 9, all Grade 3, treatment related): 44.4%
incidence of TEAEs in all patients (N = 9, all grades): 100%
TEAE ALT increased, All grades (Total, N = 9): 3 (33.3) n (%)
TEAE ALT increased, Grade ≥ 3 (Total, N = 9): 0 n (%)
TEAE AST increased, All grades (Total, N = 9): 5 (55.6) n (%)
TEAE AST increased, Grade ≥ 3 (Total, N = 9): 0 n (%)
TEAE Abdominal discomfort, All grades (Total, N = 9): 1 (11.1) n (%)
TEAE Abdominal discomfort, Grade ≥ 3 (Total, N = 9): 0 n (%)
TEAE Abdominal pain upper, All grades (Total, N = 9): 1 (11.1) n (%)
TEAE Abdominal pain upper, Grade ≥ 3 (Total, N = 9): 0 n (%)
TEAE Amylase increased, All grades (Total, N = 9): 1 (11.1) n (%)
TEAE Amylase increased, Grade ≥ 3 (Total, N = 9): 0 n (%)
TEAE Anemia, All grades (Total, N = 9): 1 (11.1) n (%)
TEAE Anemia, Grade ≥ 3 (Total, N = 9): 0 n (%)
TEAE Arthralgia, All grades (Total, N = 9): 2 (22.2) n (%)
TEAE Arthralgia, Grade ≥ 3 (Total, N = 9): 0 n (%)
TEAE Back pain, All grades (Total, N = 9): 1 (11.1) n (%)
TEAE Back pain, Grade ≥ 3 (Total, N = 9): 0 n (%)
TEAE Blepharitis, All grades (Total, N = 9): 1 (11.1) n (%)
TEAE Blepharitis, Grade ≥ 3 (Total, N = 9): 0 n (%)
TEAE Blood and lymphatic system disorders (SOC), All grades (Total, N = 9): 1 (11.1) n (%)
TEAE Blood and lymphatic system disorders (SOC), Grade ≥ 3 (Total, N = 9): 0 n (%)
TEAE Blood creatinine increased, All grades (Total, N = 9): 1 (11.1) n (%)
TEAE Blood creatinine increased, Grade ≥ 3 (Total, N = 9): 0 n (%)
TEAE Bradycardia, All grades (Total, N = 9): 1 (11.1) n (%)
TEAE Bradycardia, Grade ≥ 3 (Total, N = 9): 0 n (%)
TEAE CMV test positive, All grades (Total, N = 9): 3 (33.3) n (%)
TEAE CMV test positive, Grade ≥ 3 (Total, N = 9): 0 n (%)
TEAE Cardiac disorders (SOC), All grades (Total, N = 9): 1 (11.1) n (%)
TEAE Cardiac disorders (SOC), Grade ≥ 3 (Total, N = 9): 0 n (%)
TEAE Conjunctivitis, All grades (Total, N = 9): 2 (22.2) n (%)
TEAE Conjunctivitis, Grade ≥ 3 (Total, N = 9): 0 n (%)
TEAE Constipation, All grades (Total, N = 9): 4 (44.4) n (%)
TEAE Constipation, Grade ≥ 3 (Total, N = 9): 0 n (%)
TEAE Cough, All grades (Total, N = 9): 1 (11.1) n (%)
TEAE Cough, Grade ≥ 3 (Total, N = 9): 0 n (%)
TEAE Cytomegalovirus infection, All grades (Total, N = 9): 1 (11.1) n (%)
TEAE Cytomegalovirus infection, Grade ≥ 3 (Total, N = 9): 0 n (%)
TEAE Cytomegalovirus viremia, All grades (Total, N = 9): 1 (11.1) n (%)
